Values belong to the molecule of their own block, whether it stands above or below them.
How the values were obtained:
[1] = tested on: CA1D cells; assay: Seahorse XF Cell Mito Stress Test (oxygen consumption rate); format: cell-based, human; settings: siTROLL-8 vs siNT CA1D cells; OCR normalized to groups without inhibitor; Etomoxir 4.0 μM, UK5099 2.0 μM, BPTES 3.0 μM
Experimental: The oxygen consumption rate (OCR) of cells was measured on the Seahorse XF96 extracellular flux analyzer (Agilent Technologies) using a Seahorse XF Cell Mito Stress Test kit in accordance with the manufacturer's instructions. Briefly, siNT or siTROLL-8 CA1D cells (3.0×10^4 cells/well) were seeded in 6 wells (technical replicates) of a 96 well Agilent Seahorse XF Cell Culture Microplate in full growth medium and attached overnight. Hydrate a sensor cartridge in Seahorse XF Calibrant in a non-CO2 incubator at 37° C. overnight. On the day of assay, cells were carefully washed and the growth medium was replaced with prewarmed Seahorse XF base medium (Agilent Technologies) supplemented with 5 mM HEPES, 10 mM glucose, 1 mM sodium pyruvate, and 2 mM L-Glutamine, pH 7.4). The plates of cells in assay medium were incubated in a non-CO2 incubator at 37° C. for 1 h. Prepare compound stock solutions for loading sensor cartridge ports and load the XF96 sensor cartridge to Seahorse XF96 analyzer. Take three basal measurements and determine oxygen and proton concentration in the medium. […]

[2] = tested on: CPT1A; assay: LC-MS of carnitine and fatty acyl-carnitine to reflect CPT1A activity; format: cell-based, human
Experimental: 1.5×10^6 CA1D cells were transfected with either siNT (negative control) or siTROLL-8. 48 h after the transfection, the cells were collected and washed 2-3 times with ice-cold PBS. To analyze global metabolite abundances regulated by TROLL-8, an aliquot of the internal standard mixture was added into siNT and siTROLL-8 cell samples for untargeted metabolomics analysis. The internal standards were obtained from Cambridge Isotope Labs and include the following labelled compounds: Glucose (2,3,4,5,6-^13C5), D-Glucose-6-phosphate (U-^13C6), D-Fructose-1,6-bisphosphate (U-^13C6), L-Serine (^13C3), Glycine (1,2-^13C2), L-Cysteine (3,3-D2), Phosphoenol Pyruvate (2,3-^13C2), Lactate (3,3,3-D3), Pyruvate (D3), Acetyl-1,2-^13C2 CoA, Citric Acid (2,2,4,4-D4), Alpha-Ketoglutaric Acid (1,2,3,4-^13C4), Succinic Acid (D4), Fumaric Acid (D4), DL-Malic Acid (2,3,3-D3), D-Fructose-6-phosphate (U-^13C6). 1 ml of precooled 80% methanol extraction solvent (kept in the −80° C. freezer at least 1 h prior to extraction) was added to the sample for protein precipitation. After addition of the extraction solvent, the samples were vortexed and centrifuged at 18,800×g (Microfuge 22R, Beckman Coulter) at 0° C. for 10 min. Then, the samples were incubated for 30 min in a −80° C. freezer to increase metabolite extraction. After incubation, the samples were immediately centrifuged at 18,800×g at 4° C. for 10 min. Then the supernatant was transferred to a new microcentrifuge tube for drying in SpeedVac vacuum concentrator (Thermo Fisher Scientific). The protein pellet was resolubilized using aqueous 20 mM HEPES with 8M urea for Bradford Assay to measure the protein concentration. Dried metabolites were re-dissolved in 20 μl aqueous 80% methanol. Ultra-high performance liquid chromatography-high resolution mass spectrometry (UHPLC-HRMS) was performed using a Vanquish UHPLC interfaced with a Q Exactive HF quadrupole-orbital ion trap mass spectrometer (Thermo, San Jose, CA). Chromatographic separation was performed using a SeQuant ZIC-pHILIC guard column (2.1 mm ID×20 mm length, 5 μm particle size) and a SeQuant ZIC-pHILIC LC column (2.1 mm ID×150 mm length, 5 μm particle size, MilliporeSigma, Burlington, MA). Mobile phase A was aqueous 10 mM ammonium carbonate and 0.05% ammonium hydroxide, and mobile phase B was 100% acetonitrile. The gradient program included the following steps: start at 80% B, a linear gradient from 80 to 20% B over 13 min, stay at 20% B for 2 min, return to 80% B in 0.1 min, and re-equilibration for 4.9 min for a total run time of 20 min. The flow rate was set to 0.250 ml/min. The autosampler was cooled to 5° C. and the column temperature was set to 30° C. Sample injection volume was 2 μl for both positive ion mode and negative ion mode electrospray ionization. Full MS was performed in positive and negative mode separately detecting ions from m/z 65 to m/z 900. MZmine software, version 3.39, was used to identify and quantify metabolites by matching by m/z and RT to an in-house library. Data normalization was carried out using the protein concentration. For acetyl-CoA detection, spike heavily labelled internal standards (3 labelled Acyl CoAs) into each sample. For fatty acyl-carnitine detection, spike heavily labelled internal standards (3 labelled Acyl Carnitine) into each sample. An aliquot (300 μl) of cold 80% methanol extraction solvent (leave in −80° C. at least one hour prior to the experiments) is added to the sample for protein precipitation. After vortexing, the samples are then incubated in the −80° C. freezer for 30 mins, followed by centrifugation at 18,800×g (Microfuge 22R, Beckman Coulter) at 0° C. for 10 mins. Then the supernatant is transferred to new Eppendorf tubes for drying in SpeedVac vacuum concentrator (Thermo Fisher Scientific). The protein pellet is left behind and proceeds for protein concentration measurement by Bradford Assay. […]

[3] = biological target: T1, carnitine palmitoyltransferase 1A (CPT1A) (human, UniProt P50416 2-773); assay: co-IP with anti-CPT1A antibody from CA1D cell lysate, western blot
T1 construct: Endogenous protein immunoprecipitated from cell lysate with anti-CPT1A antibody (15184-1-AP, Proteintech); also called FAO rate-limiting enzyme
T1 sequence (looked up): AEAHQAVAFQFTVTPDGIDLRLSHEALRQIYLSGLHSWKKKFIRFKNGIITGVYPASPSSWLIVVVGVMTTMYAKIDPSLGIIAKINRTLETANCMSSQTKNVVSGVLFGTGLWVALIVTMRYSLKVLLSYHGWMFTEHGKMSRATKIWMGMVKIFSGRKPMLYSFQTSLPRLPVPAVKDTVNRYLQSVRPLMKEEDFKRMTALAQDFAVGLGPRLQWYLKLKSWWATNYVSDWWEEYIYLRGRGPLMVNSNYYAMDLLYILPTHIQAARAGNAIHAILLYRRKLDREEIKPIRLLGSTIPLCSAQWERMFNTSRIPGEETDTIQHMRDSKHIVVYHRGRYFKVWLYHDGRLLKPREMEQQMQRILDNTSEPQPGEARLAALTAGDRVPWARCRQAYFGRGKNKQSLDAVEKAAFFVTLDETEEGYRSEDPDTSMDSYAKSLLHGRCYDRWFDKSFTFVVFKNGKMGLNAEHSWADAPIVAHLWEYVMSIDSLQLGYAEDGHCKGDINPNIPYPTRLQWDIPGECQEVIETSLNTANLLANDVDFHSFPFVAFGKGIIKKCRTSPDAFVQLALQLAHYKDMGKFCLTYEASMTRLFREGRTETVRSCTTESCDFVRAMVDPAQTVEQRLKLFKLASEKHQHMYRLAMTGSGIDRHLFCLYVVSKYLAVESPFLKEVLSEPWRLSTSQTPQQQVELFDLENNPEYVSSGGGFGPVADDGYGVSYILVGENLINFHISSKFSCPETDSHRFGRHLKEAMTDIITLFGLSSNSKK
Description: Beyond its classical activity, ACAT1 acetylates the Pyruvate Dehydrogenase Phosphatase Catalytic Subunit1 (PDP1) and the Pyruvate Dehydrogenase E1 Subunit Alpha1 (PDHA1) in the Pyruvate Dehydrogenase Complex (PDC), which negatively regulates the activity of Pyruvate Dehydrogenase (PDH) in glycolysis and tumor growth. […] In the experiment, we have the following groups: whole cell lysate (5% of the total input); cell lysate from either CA1D cells, or siNT/siTROLL-8 treated CA1D cells immunoprecipitated with CPT1A specific antibody; or the same cell lysate immunoprecipitated with normal IgG control antibody. […] While there is no change in the expression level of either CPT1A or ACAT1 in the whole cell lysate, CPT1A specifically immunoprecipitated more ACAT1 (by around 2-fold) in siTROLL-8 CA1D cells compared to non-treated cells, confirming the LC-MS discovery that TROLL-8 depletion increased the physical interaction between CPT1A and ACAT1.
4 mg cell lysate of CA1D cells were prepared using RIPA buffer and used to test the interaction between CPT1A and ACAT1. 4 mg cell lysate of either CA1D cells transfected with siRNAs for TROLL-8, or with the non-targeting siRNA as a negative control, were used to test the change in the interaction between CPT1A and ACAT1. The CoIP assay was performed according to the protocol provided with the anti-CPT1A primary antibody (15184-1-AP). […]

[4] = biological target: T1, carnitine palmitoyltransferase 1A …; assay: co-IP with anti-CPT1A antibody from CA1D cell lysate, LC-MS/MS proteomics
Experimental: 4 mg cell lysate of CA1D cells were prepared using RIPA buffer and used to test the interaction between CPT1A and ACAT1. 4 mg cell lysate of either CA1D cells transfected with siRNAs for TROLL-8, or with the non-targeting siRNA as a negative control, were used to test the change in the interaction between CPT1A and ACAT1. The CoIP assay was performed according to the protocol provided with the anti-CPT1A primary antibody (15184-1-AP). Add anti-CPT1A primary antibody (15184-1-AP, Proteintech) or negative control normal rabbit IgG (#2729, Cell Signaling) corresponding to the primary antibody source to the lysate with gentle rocking at 4° C. for 12 h. 50 ul Protein G Dynabeads slurry were added to capture the immunocomplex with gentle rocking at 4° C. for 12 h. Collect the beads with magnetic stand and discard the supernatant. Wash the beads 3 times with 1 ml 0.2% TBST, collect the beads with magnetic stand and discard the supernatant. […] The interaction was then detected via western blot using the following primary antibodies: CPT1A (ab128568, Abcam), ACAT1 (ab168342, Abcam), and beta-actin (A5441, Sigma-Aldrich).
1.5×10⁶ CA1D cells were transfected with either siNT (negative control) or siTROLL-8. […] The SDS-PAGE gel bands or the immunoprecipitated proteins were extracted, digested with trypsin, and analyzed via LC-MS/MS and the identified peptides are listed in Supplementary Data 1. […]

[5] = CA1D cells with shCPT1A and CPT1A WT/KQ/KR overexpression, mutants compared to CPT1A overexpression

Molecule: CCOC(=O)[C@@]1(CCCCCCOc2ccc(Cl)cc2)CO1 [Etomoxir]
impact of fuel oxidation inhibitor in basal respiration upon TROLL-8 depletion [1]: increased the impact
fatty acylcarnitine level [2, 5]: reduced
free carnitine level [2, 5]: augmented
long-chain fatty acylcarnitine levels ([2]; CA1D cells, 10 μM Etomoxir): significantly reduced
medium-chain fatty acylcarnitine levels ([2]; CA1D cells, 10 μM Etomoxir): significantly reduced
short-chain fatty acylcarnitine levels ([2]; CA1D cells, 10 μM Etomoxir): significantly reduced
level of carnitine (substrate for CPT1A activity) ([2]; CA1D cells, siNT, siTROLL-8, siNT+Eto, 10 μM Etomoxir): increased

Molecule: N#C/C(=C\c1cn(-c2ccccc2)c2ccccc12)C(=O)O [UK5099]
impact of fuel oxidation inhibitor in basal respiration upon TROLL-8 depletion [1]: increased the impact

fold change of ACAT1 immunoprecipitated by CPT1A (siTROLL-8 vs non-treated CA1D cells) [3]: ~2 fold
fold change of co-immunoprecipitation with CPT1A (TROLL-8 depleted vs non-treated CA1D cells) [4]: ~2 fold
B1: ACAT1, the acetyl-CoA acetyltransferase 1 protein (enzyme, human, UniProt P24752 34-427, looked up)
chain: VSKPTLKEVVIVSATRTPIGSFLGSLSLLPATKLGSIAIQGAIEKAGIPKEEVKEAYMGNVLQGGEGQAPTRQAVLGAGLPISTPCTTINKVCASGMKAIMMASQSLMCGHQDVMVAGGMESMSNVPYVMNRGSTPYGGVKLEDLIVKDGLTDVYNKIHMGSCAENTAKKLNIARNEQDAYAINSYTRSKAAWEAGKFGNEVIPVTVTVKGQPDVVVKEDEEYKRVDFSKVPKLKTVFQKENGTVTAANASTLNDGAAALVLMTADAAKRLNVTPLARIVAFADAAVEPIDFPIAPVYAASMVLKDVGLKKEDIAMWEVNEAFSLVVLANIKMLEIDPQKVNINGGAVSLGHPIGMSGARIVGHLTHALKQGEYGLASICNGGGGASAMLIQKL
notes: Endogenous protein co-immunoprecipitated with CPT1A from cell lysate; also called acetyltransferase ACAT1
